Results as given in patent US11879895B2, “Intercellular proximity labeling using eGRASP” (Seoul National University R&DB Foundation, priority 2018, dated 2024).
One block for each compound: values may come before it.

Assays:
HEK293T cells = experiment: GRASP signal at the interface of separately nucleofected HEK293T cells; assay type: cell-based, human; settings: pre- and post-constructs transduced into separate HEK293T cells through nucleofection
Text: According to still another embodiment of the present disclosure, the first labeling material or the second labeling material may further comprise a first binding-enhancing site or a second binding-enhancing site, respectively. Specifically, when the first labeling material and the second labeling material are located in close proximity, the first labeling material and the second labeling material are bound to each other to generate a signal. In order to assist the binding, the first labeling material and the second labeling material may further comprise a first binding-enhancing site and a second binding-enhancing site, respectively. The first binding-enhancing site and the second binding-enhancing site may form a binding with each other. Therefore, when the first labeling material and the second labeling material are adjacent to each other, the first binding-enhancing site and the second binding-enhancing site are bound to assist the binding of the first labeling material and the second labeling material.
The upper figure of FIG. 5a is a result when either post-mGRASP or mCherry-binding pre-mGRASP co-expressing mTagBFP2 was transduced into HEK293T cells through nucleofection. […] Peptide p40 (APTYSPPPPP) was bound to a SH3 domain in the post-eGRASP structure to enhance GRASP signals. […]

DG = experiment: Validation of the Fos-rtTA system with seizures; assay type: in vivo, mice; settings: injection of seizure inducer, doxycycline 2 hours before
Method: FIGS. 8a to 8c show the results of validation experiments of the Fos-rtTA system with seizures. FIG. 8a is a schematic illustration of the injected AAV, in which the nuclear target mEmerald (mEmerald-Nuc) was regulated by the TRE3G promoter that were regulated by rtTA3G expressed by the Fos promoter, and the nuclear target mCherry regulated by CaMKIIα was used for an expression control.
Doxycycline was injected 2 hours before seizure induction or contextual fear conditioning (CFC) to successfully label activated cells during each event (FIGS. 8A to 8C and FIGS. 9A to 9D). FIGS. 8a to 8c show the results of validation experiments of the Fos-rtTA system with seizures. FIG. 8a is a schematic illustration of the injected AAV, in which the nuclear target mEmerald (mEmerald-Nuc) was regulated by the TRE3G promoter regulated by rtTA3G expressed by the Fos promoter, and the nuclear target mCherry regulated by CaMKIIα was used as an expression control. […] FIGS. 9a to 9d show the results of the verification experiment of the Fos-rtTA system using CFC. […] FIG. 9b is a diagram showing a timetable of actions used in the experiment.

Abl SH3 peptide = molecular target: T1, Abl SH3 peptide (Homo sapiens, UniProt P00519); experiment: Binding of Abl SH3 binding peptide to Abl SH3 peptide of post-eGRASP; settings: p32 compared with p30
T1 construct: IgG kappa signal peptide (N)
T1 sequence (P00519 with tags, fused parts or gaps): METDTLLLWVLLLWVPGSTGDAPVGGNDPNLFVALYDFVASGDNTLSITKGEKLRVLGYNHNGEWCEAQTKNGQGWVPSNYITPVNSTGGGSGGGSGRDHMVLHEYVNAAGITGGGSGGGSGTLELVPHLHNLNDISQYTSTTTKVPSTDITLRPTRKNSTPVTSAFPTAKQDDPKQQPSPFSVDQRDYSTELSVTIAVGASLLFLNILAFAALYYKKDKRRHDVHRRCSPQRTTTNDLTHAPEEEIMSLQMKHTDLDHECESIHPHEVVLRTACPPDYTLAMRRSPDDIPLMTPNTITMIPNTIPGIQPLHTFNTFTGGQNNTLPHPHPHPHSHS
Method: (3) Abl SH3 binding peptide contained in Pre-eGRASP had p30 (APTKPPPLPP) or p32 (SPSYSPPPPP) sequence. p32 was bound more strongly to Abl SH3 peptide of post-eGRASP than p30. Therefore, in this example, a cyan pre-eGRASP designed to be continuously expressed was prepared using p30, and in this example, yellow pre-eGRASP designed to start to be expressed from a specific time point when memory starts to be formed was prepared using p32, thereby matching the balance of cyan fluorescence and yellow fluorescence.

Compound: S72A: Additional S72A mutation in strands 1-10 of the split GFP; SEQ ID NO: 2
- GRASP signal at the interface between cells (HEK293T cells): GRASP signal increases

Compound: C1CCc2nnnn2CC1 [Pentylenetetrazol]
- mEmerald-Nuc signal in DG (DG): strong mEmerald-Nuc signal

- binding to Abl SH3 peptide, relative (Abl SH3 peptide): more strongly
Compound: SPSYSPPPPP ((synthetic) p32)
